Measured values from PubChem BioAssay AID2060905 (Molecular Pharmacology Branch, DTP, NCI, 2025).

Test system: 282377-053-R-J1-PDC complex spheroid viability
Experiment: Anticancer human tumor 282377-053-R-J1-PDC patient-derived colon adenocarcinoma cell line growth inhibition [RAS]
Conditions: for viability, T/C: stronger effect = lower value
In short: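 Agents were tested in combination matrices in half-log decrements from a top concentration at or near clinical Cmax (10 microM if undetermined). Targets were multi-cell spheroids of tumour lines plus HUVEC and MSC stromal cells.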

[1] = curve of first compound, second compound 0.00316 µM
[2] = curve of first compound, second compound 0.01 µM
[3] = curve of first compound, second compound 0.0316 µM
[4] = curve of first compound, second compound 0.1 µM
[5] = curve of first compound, second compound 0.316 µM
[6] = curve of first compound, second compound 1 µM
[7] = second compound 0.00316 µM, first compound 0.0316 µM
[8] = second compound 0.00316 µM, first compound 0.1 µM
[9] = second compound 0.01 µM, first compound 0.0316 µM
[10] = second compound 0.01 µM, first compound 0.1 µM
[11] = second compound 0.0316 µM, first compound 0.0316 µM
[12] = second compound 0.0316 µM, first compound 0.1 µM
[13] = second compound 0.1 µM, first compound 0.0316 µM
[14] = second compound 0.1 µM, first compound 0.1 µM
[15] = second compound 0.316 µM, first compound 0.0316 µM
[16] = second compound 0.316 µM, first compound 0.1 µM
[17] = second compound 1 µM, first compound 0.0316 µM
[18] = second compound 1 µM, first compound 0.1 µM
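Further: spheroids exposed to agents for seven days before readout.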
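Wherever viability, T/C is given: luminescence viability as percent of DMSO vehicle control wells.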

Compound: CC(C)n1nc(-c2ccc3oc(N)nc3c2)c2c(N)ncnc21 + C=CC(=O)N1CCN(c2nc(OCC3CCCN3C)nc3c(F)c(-c4nc(N)cc(C)c4C(F)(F)F)c(Cl)cc23)C(C)C1
- IC50 [1]: > 100 nM
- IC50 [2]: 89.8 nM
- IC50 [3]: 94.1 nM
- IC50 [4]: 85.9 nM
- IC50 [5]: > 100 nM
- IC50 [6]: > 100 nM
- viability, T/C (second compound 0.00316 µM, first compound 0.000316 µM): 96.6%
- viability, T/C (second compound 0.00316 µM, first compound 0.001 µM): 86.9%
- viability, T/C (second compound 0.00316 µM, first compound 0.00316 µM): 80%
- viability, T/C (second compound 0.00316 µM, first compound 0.01 µM): 87.7%
- viability, T/C [7]: 62.8%
- viability, T/C [8]: 54.5%
- viability, T/C (second compound 0.01 µM, first compound 0.000316 µM): 85.3%
- viability, T/C (second compound 0.01 µM, first compound 0.001 µM): 81%
- viability, T/C (second compound 0.01 µM, first compound 0.00316 µM): 74.5%
- viability, T/C (second compound 0.01 µM, first compound 0.01 µM): 87%
- viability, T/C [9]: 68.8%
- viability, T/C [10]: 47.8%
- viability, T/C (second compound 0.0316 µM, first compound 0.000316 µM): 92.2%
- viability, T/C (second compound 0.0316 µM, first compound 0.001 µM): 98.3%
- viability, T/C (second compound 0.0316 µM, first compound 0.00316 µM): 87.5%
- viability, T/C (second compound 0.0316 µM, first compound 0.01 µM): 82.5%
- viability, T/C [11]: 97.5%
- viability, T/C [12]: 47.7%
- viability, T/C (second compound 0.1 µM, first compound 0.000316 µM): 81.7%
- viability, T/C (second compound 0.1 µM, first compound 0.001 µM): 105%
- viability, T/C (second compound 0.1 µM, first compound 0.00316 µM): 91%
- viability, T/C (second compound 0.1 µM, first compound 0.01 µM): 78.3%
- viability, T/C [13]: 77.5%
- viability, T/C [14]: 45.7%
- viability, T/C (second compound 0.316 µM, first compound 0.000316 µM): 110%
- viability, T/C (second compound 0.316 µM, first compound 0.001 µM): 103%
- viability, T/C (second compound 0.316 µM, first compound 0.00316 µM): 109%
- viability, T/C (second compound 0.316 µM, first compound 0.01 µM): 68.3%
- viability, T/C [15]: 61.9%
- viability, T/C [16]: 48.6%
- viability, T/C (second compound 1 µM, first compound 0.000316 µM): 99.9%
- viability, T/C (second compound 1 µM, first compound 0.001 µM): 85.1%
- viability, T/C (second compound 1 µM, first compound 0.00316 µM): 112%
- viability, T/C (second compound 1 µM, first compound 0.01 µM): 67.7%
- viability, T/C [17]: 55.4%
- viability, T/C [18]: 61.9%

Compound: O=C(c1ccc(F)c(F)c1Nc1ccc(I)cc1F)N1CC(O)([C@@H]2CCCCN2)C1
- viability, T/C (compound 0.00316 µM): 75.2% [middle of 4 runs]
- viability, T/C (compound 0.1 µM): 53.5% [middle of 4 runs]
- viability, T/C (compound 0.316 µM): 28.1% [middle of 4 runs]
- viability, T/C (compound 1 µM): 20.8% [middle of 4 runs]
- IC50 (curve of compound): 79.8 nM [middle of 4 runs]

Compound: NC1c2ccccc2OC12CCN(c1cnc3c(N4CCCc5ncccc54)n[nH]c3n1)CC2 (centres undefined) + C=CC(=O)N1CCN(c2nc(OCC3CCCN3C)nc3c(F)c(-c4nc(N)cc(C)c4C(F)(F)F)c(Cl)cc23)C(C)C1
- IC50 [1]: > 10000 nM
- IC50 [2]: > 10000 nM
- IC50 [3]: > 10000 nM
- IC50 [4]: > 10000 nM
- IC50 [5]: > 10000 nM
- IC50 [6]: > 10000 nM
- viability, T/C [7]: 114%
- viability, T/C [8]: 104%
- viability, T/C (second compound 0.00316 µM, first compound 0.316 µM): 102%
- viability, T/C (second compound 0.00316 µM, first compound 1 µM): 95%
- viability, T/C (second compound 0.00316 µM, first compound 3.16 µM): 105%
- viability, T/C (second compound 0.00316 µM, first compound 10 µM): 79%
- viability, T/C [9]: 89.9%
- viability, T/C [10]: 112%
- viability, T/C (second compound 0.01 µM, first compound 0.316 µM): 99.1%
- viability, T/C (second compound 0.01 µM, first compound 1 µM): 118%
- viability, T/C (second compound 0.01 µM, first compound 3.16 µM): 93.8%
- viability, T/C (second compound 0.01 µM, first compound 10 µM): 86.5%
- viability, T/C [11]: 106%
- viability, T/C [12]: 105%
- viability, T/C (second compound 0.0316 µM, first compound 0.316 µM): 92.9%
- viability, T/C (second compound 0.0316 µM, first compound 1 µM): 92.2%
- viability, T/C (second compound 0.0316 µM, first compound 3.16 µM): 90.3%
- viability, T/C (second compound 0.0316 µM, first compound 10 µM): 83.5%
- viability, T/C [13]: 82.1%
- viability, T/C [14]: 87.8%
- viability, T/C (second compound 0.1 µM, first compound 0.316 µM): 84.1%
- viability, T/C (second compound 0.1 µM, first compound 1 µM): 108%
- viability, T/C (second compound 0.1 µM, first compound 3.16 µM): 122%
- viability, T/C (second compound 0.1 µM, first compound 10 µM): 84.2%
- viability, T/C [15]: 88%
- viability, T/C [16]: 98.6%
- viability, T/C (second compound 0.316 µM, first compound 0.316 µM): 95.8%
- viability, T/C (second compound 0.316 µM, first compound 1 µM): 96.5%
- viability, T/C (second compound 0.316 µM, first compound 3.16 µM): 113%
- viability, T/C (second compound 0.316 µM, first compound 10 µM): 91.1%
- viability, T/C [17]: 97.5%
- viability, T/C [18]: 106%
- viability, T/C (second compound 1 µM, first compound 0.316 µM): 103%
- viability, T/C (second compound 1 µM, first compound 1 µM): 104%
- viability, T/C (second compound 1 µM, first compound 3.16 µM): 104%
- viability, T/C (second compound 1 µM, first compound 10 µM): 86.6%
